Measured values reported in US20260373164A1, “4(RS)-4-F4-NEUROPROSTANE DERIVATIVES (4-F4T-NEUROP) AND THEIR USE IN TREATING VENTILATOR INDUCED DIAPHRAGMATIC DYSFUNCTION AND OTHER DISEASES” (INSTITUT NATIONAL DE LA SANTÉ ET DE LA RECHERCHE MÉDICALE, priority 2022, published 2026).
Entries after “also recorded” stand apart in the source; their conditions may differ.

Legend:
piglet diaphragm (VIDD) = experiment: Trans-diaphragmatic pressure (Pdi)-frequency relationship after 72 hours of mechanical ventilation in piglets; assay type: in vivo; conditions: for prevention of VIDD in porcine model: general statement, piglets
Description: As previously described^18,25, twelve piglets (15-20 kg) were separated in two groups of six animals/each. In both groups, oxygenation was maintained with a fraction of inspired oxygen (FIO2) ranging from 25 to 35%, tidal volume between 10 and 12 ml·kg^−1 body weight and breathing frequency from 15 to 30 cycles/min to maintain normocapnia. In the first group (MV group), piglets were mechanically ventilated using CMV, with a positive end-expiratory pressure level at 5 cm H2O. The absence of spontaneous breathing was verified on the ventilator trend graphs, and the diaphragm electromyographic activity was measured to ensure the absence of diaphragm electrical activity. In the second group (control group), piglets were ventilated using ASV, with settings in phase with the piglet body weight (inspiratory flow trigger at 0.3 L·min^−1, percentage of mechanical ventilation between 100 and 150%, positive end-expiratory pressure level at 5 cm H2O, and expiratory trigger at 25% of the peak inspiratory flow). The diaphragm electromyographic activity was assessed to verify that piglets could breathe spontaneously. Both groups received the same care, except for the MV mode.
Briefly, piglets were anesthetized by intravenous injection of 5-6 mg kg^−1 pentobarbital sodium, intubated with a cuffed endotracheal tube and mechanically ventilated (Galileo®; Hamilton Medical AG, Rhazuns, Switzerland). Anesthesia was maintained with continuous intravenous infusion of 15-20 mg·kg^−1 propofol, 0.1-0.3 mg·kg^−1 midazolam and 3-4 mg·kg^−1·h^−1 ketamine. The level of sedation was monitored by using a bispectral index system (BIS®; Aspect, Norwood, MA). Heating pads were employed, as needed, to maintain the normal body temperature of 38.5-39.5 °C. […]
Arterial carbon dioxide pressure was monitored using a capnograph (Deltatrac®; Datex-Ohmeda, Helsinki, Fin-land) and verified by arterial blood gas analysis (iSTAT®; Abbott, Abbott Park, IL). […]
The diaphragm contractile function was assessed in vivo by measuring the transdiaphragmatic pressure (Pdi)^18. […]

calstabin1/RyR1 complex = experiment: RyR1 biochemical analysis (immunoprecipitation): oxidation, phosphorylation, calstabin1 interaction; assay type: in vivo, mouse; conditions: for RyR function: associated with VIDD prevention in the murine and porcine models; for RyR oxidation, and phosphorylation: statement in discussion for both compounds
Description: Muscle biopsies were homogenized in 150 μl of buffer containing 5% SDS, 5% beta-mercaptoethanol, 10% glycerol, 10 mM EDTA and 50 mM Tris/HCl buffer (pH=8.0). Each sample was immediately denatured at 90 °C for 4 min. After centrifugation (5000 rpm) at 4 °C, supernatant protein concentrations were measured in duplicate using the BCA protein assay, equilibrated at the same concentration by dilution with loading buffer and aliquoted at 2 μg/μl. RyR1 was immunoprecipitated from 250 μg of homogenate using an anti-RyR antibody (4 μg RyR1-1327) in 0.5 ml of a modified RIPA buffer (50 mM Tris-HCl pH 7.4, 0.9% NaCl, 5.0 mM NaF, 1.0 mM Na3VO4, 1% Triton-X100, and protease inhibitors) for 1 hr at 4 °C. The immune complexes were incubated with protein A Sepharose beads (Amersham Pharmacia) at 4 °C for 1 hr and the beads were washed three times with buffer. Proteins were separated on SDS-PAGE gels (4-20% gradient) and transferred onto nitrocellulose membranes for 2 hr at 200 mA (SemiDry transfer blot, Bio-Rad). To prevent non-specific antibody binding, the membranes were incubated with blocking solution (LICOR Biosciences) and washed with Tris-buffered saline with 0.1% Tween-20.
Blots were respectively incubated with primary antibody to RyR1 (RyR1-1327, an affinity-purified rabbit polyclonal antibody raised against a KLH-conjugated peptide with the amino acid sequence CAEPDTDYENLRRS, corresponding to residues 1327-1339 of mouse skeletal RyR1, with an additional cysteine residue added to the amino terminus), and affinity purified with the unconjugated peptide. The inventors also used antibody to calstabin1 (1:2500 in blocking buffer, LICOR Biosciences); phospho-epitope-specific antibody to human RyR2 phosphorylated on Ser-2808 (1:5,000), which detects PKA-phosphorylated mouse RyR1 (on Ser-2844) and RyR2 (on Ser-2808); antibody to S-nitrosylated cysteine residues (1:1000, Sigma). To determine RyR1 oxidation, the immunoprecipitate was treated with 2, 4-dinitrophenyl hydrazine, and the derivatized carbonyls were detected using an OxyBlot protein oxidation detection Kit (catalog S7150, Chemicon International Inc.). After three washes, membranes were incubated with infrared-labeled secondary antibodies. Control samples were analyzed on each gel for normalization and total levels of RyR1 were not different between groups.
Diaphragm samples from the above experiments were frozen and solubilized to further investigate the biochemical properties of the RyR1 macromolecular complex.

CC/C=C\C/C=C\C/C=C\C[C@@H]1[C@H](/C=C/C(O)CCC(=O)O)[C@@H](O)C[C@H]1O (mixture of isomers) [Compound 4F4t-NeuroP, 4(RS)-4-F4t-Neuroprostane]
prevention of VIDD in porcine model (piglet diaphragm (VIDD)): prevent with a high efficiency VIDD | RyR function (calstabin1/RyR1 complex): normalization of RyR function | biochemical signature of leaky RyR1 (oxidation, ser2844 phosphorylation, calstabin1 depletion) (calstabin1/RyR1 complex; mouse diaphragm after 6 h MV, 4F4t-NeuroP IV): this post-translational remodeling was prevented; also recorded: fully prevented | calstabin1/RyR1 complex (calstabin1/RyR1 complex; mouse diaphragm after 6 h MV, calstabin1/RyR1 interaction): Stabilizes the Complex Calstabin1/RyR1 | RyR oxidation, and phosphorylation (calstabin1/RyR1 complex): prevent RyR oxidation, and phosphorylation

CC/C=C\C[C@@H]1[C@H](/C=C/C(O)CCC(=O)O)[C@@H](O)C[C@H]1O (mixture of isomers) [VB558, (E)-6-((1S,2R,3R,5S)-3,5-dihydroxy-2-((Z)-pent-2-en-1-yl)cyclopentyl)-4-hydroxyhex-5-enoic Acid]
reduction of trans-diaphragmatic pressure (Pdi) / VIDD in piglets (piglet diaphragm (VIDD); IV bolus 0.250 mg·kg^−1 then 0.025 mg·kg^−1 every 12 hours, 72 h MV): prevents VIDD in piglets after 72 hours of ventilation; also recorded: fully prevented | prevention of VIDD in porcine model (piglet diaphragm (VIDD)): prevent with a high efficiency VIDD | RyR function (calstabin1/RyR1 complex): normalization of RyR function | RyR oxidation, and phosphorylation (calstabin1/RyR1 complex): prevent RyR oxidation, and phosphorylation
